In US5140010A, “Stabilized aqueous formulations of thymopentin” (Immunobiology Research Institute, priority 1991, dated 1992):
Where two headings read alike, the source gives them in different places. No end group written: not given here.

What was measured:
[1] = stabilizing effect of other amino acids upon thymopentin in aqueous formulation
Method: To the peptide solution is added a sufficient amount of glycine to stabilize the solution.

[2] = human clinical research, clinical pharmacological result; assay type: in vivo; settings: patients
Method: (§1) In experiments with thymopentin, it was observed that the optimal doses of thymopentin in an injectable aqueous formulation for immunostimulation in laboratory animals was about 1 μg/kg of body weight. For laboratory use, these dosages were prepared immediately prior to use.

[3] = immunostimulation in laboratory animals, injectable aqueous formulation; assay type: in vivo; settings: injectable aqueous formulation prepared immediately prior to use
Method: as §1

Molecule	stabilizing effect upon thymopentin [1]	also measured
N[C@@H](CCC(=O)O)C(=O)O [glutamic acid]		stabilizing effect upon thymopentin ([1]; amino acid in place of glycine): do not exert the stabilizing effect
N[C@@H](Cc1c[nH]cn1)C(=O)O [histidine]	do not exert the stabilizing effect	
RKDVY [thymopentin]		dose required to produce a clinical pharmacological result [2]: ≥ 1 mg/kg body weight; optimal dose for immunostimulation [3]: about 1 μg/kg of body weight
N[C@@H](Cc1c[nH]c2ccccc12)C(=O)O [tryptophan]	do not exert the stabilizing effect	
N[C@@H](CC(=O)O)C(=O)O [aspartic acid]	do not exert the stabilizing effect	
N=C(N)NCCC[C@H](N)C(=O)O [arginine]	do not exert the stabilizing effect	
NCCCC[C@H](N)C(=O)O [lysine]	do not exert the stabilizing effect	
O=C(O)[C@@H]1CCCN1 [proline]	do not exert the stabilizing effect	
N[C@@H](Cc1ccc(O)cc1)C(=O)O [tyrosine]	do not exert the stabilizing effect	
C[C@H](N)C(=O)O [alanine]	do not exert the stabilizing effect	
